# Legend:
# [1] = Field trials: peroxide oxidation of wood preserving wastewater, then carbon adsorption
# Method: In field trials 900 liter samples of wood preserving wastewater of known Chemical Oxygen Demand (COD) was treated as follows:
# This antifoam agent was added because foaming was expected in view of the large volume of waste water being treated.
# An amount of Fe^2+ (as 0.1M or 1M ferrous sulphate heptahydrate) equivalent to 5-7% of the total H2 O2 by weight was added with fast agitation. The pH was kept at 3-3.8 at a temperature of 40°±5° C.
# The reaction was judged complete when the colour of the reaction mixture turned light yellow similar to that of a ferric ions solution (3-3.5 hrs.)
# The catalyst was separated by co-precipitation with alum or poly electrolytes.
# [2] = Effect of peroxide/penta weight ratios on the oxidation of pentachlorophenol; conditions: Fe2+/H2O2 3%, pH 3.5
# Method: a) Effect of peroxide/penta weight ratios on the oxidation of pentachlorophenol
# Appropriate amounts of technical grade pentachlorophenol were dissolved in deionized water (the pH of which was kept at 8 to 9 with 5% NaOH solution) to yield solutions containing 19.0, 38.1, 66.6 and76.2 ppm pentachlorophenol.
# 100 ml of each of the above solutions was placed in each of four 100 ml beakers.
# 157.5 mg H2 O2 (≈0.42 ml of 35% solution) were added to each beaker to give peroxide/penta weight ratios of 82.7, 41.3, 27.6 and 20.7, respectively.
# 4.74 mg of Fe^2+ (≈0.85 ml of 0.1 molar solution of ferrous sulphate heptahydrate) were then added to give a constant Fe^2+ /H2 O2 weight ratio of 3% in each beaker.
compound,measurement,setting,value
"Oc1c(Cl)c(Cl)c(Cl)c(Cl)c1Cl [Pentachlorophenol, pentachlorophenol]",removed after oxidation followed by carbon adsorption,[1]; field trial,> 99.3%
same,removed after oxidation only,[1]; field trial,92.60-98.75%
same,destruction levels of contaminants by oxidation,[1]; summary of process,~99.9%
same,PCP destruction,"[2]; PCP 19.0 ppm, H2O2/PCP ratio 82.7",96.2%
same,PCP destruction,"[2]; PCP 38.1 ppm, H2O2/PCP ratio 41.3",98.2%
same,PCP destruction,"[2]; PCP 66.6 ppm, H2O2/PCP ratio 27.6",98.9%
same,PCP destruction,"[2]; PCP 76.2 ppm, H2O2/PCP ratio 20.7",95.9%
